Data published in patent publication US20220324835A1 (Nurix Therapeutics, Inc., priority 2018, published 2022).

What was measured:
Cbl-b [1] = biological target: T1, Cbl-b (Homo sapiens, UniProt Q13191); test: Cbl-b activity assay (Cbl-b inhibition assay), TR-FRET of Cbl-b interaction with UbcH5B-Ub; format: biochemical; conditions: assay buffer with 100 mM NaCl, 60 nM Src kinase
How it was run: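 UbcH5B (C85K) conjugated to N-terminally Bodipy-Fluorescein-labeled ubiquitin served as the fluorescent partner. After compound preincubation, Src kinase (60 nM) with 1 mM ATP and 5 mM MgCl2 (final) was added for 1.5 h, followed by a further 1 h incubation. Some values were obtained with 50 mM NaCl and 30 nM Src.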

Cbl-b [2] = biological target: T1, Cbl-b; test: Cbl-b inhibition assay (Cbl-b activity assay, FRET, Biological Example 1; 100 mM NaCl, 60 nM Src kinase); format: biochemical
How it was run: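 Binding-based Cbl-b activity assay. Src-phosphorylated, N-terminally biotin-Avi-tagged Cbl-b recruits labelled UbcH5B-Ub, and proximity to streptavidin-terbium yields FRET.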

T-cell [3] = test: IL-2 secretion from T-cells co-stimulated with anti-CD3 and anti-CD28 antibody (Biological Example 2); format: cell-based, human; conditions: Homo sapiens, T-cell; for fold induction at 4 µM: 4 μM Cbl-b inhibitor
How it was run: (§1)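 T-cells were stimulated with anti-CD3 antibody alone or with anti-CD28 antibody, in the presence or absence of Cbl-b inhibitor. IL-2 secretion or CD25 surface staining was measured, and values expressed as fold over the uninhibited baseline […].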

T-cell [4] = test: CD25 cell surface staining on T-cells stimulated with anti-CD3 antibody alone (Biological Example 2); format: cell-based, human; conditions: T-cell; for fold induction at 8 µM: 8 μM Cbl-b inhibitor
T-cell [5] = test: IL-2 secretion from T-cells stimulated with anti-CD3 antibody alone (Biological Example 2); format: cell-based, human; conditions: T-cell; for fold induction at 8 µM: 8 μM Cbl-b inhibitor
T-cell [6] = test: CD25 cell surface staining on T-cells co-stimulated with anti-CD3 and anti-CD28 antibody (Biological Example 2); format: cell-based, human; conditions: Homo sapiens, T-cell; for fold induction at 4 µM: 4 μM Cbl-b inhibitor
How it was run: as §1

[7] = upper bound stated in text lists, read-out: IC50 values in the Cbl-b inhibition assay of Biological Example 1
[8] = fold change over baseline, 0.3 μM Cbl-b inhibitor, primary human total T-cells, read-out: IL-2 secretion Anti-CD3/Anti-CD28 stimulation
[9] = fold change over baseline, 1 μM Cbl-b inhibitor, primary human total T-cells, read-out: IL-2 secretion Anti-CD3/Anti-CD28 stimulation
[10] = fold change over baseline, primary human total T-cells, read-out: IL-2 secretion Anti-CD3/Anti-CD28 stimulation
[11] = fold change over baseline, 1 μM Cbl-b inhibitor, primary human total T-cells, read-out: CD25 staining Anti-CD3 stimulation
[12] = fold change over baseline, primary human total T-cells, read-out: CD25 staining Anti-CD3 stimulation
[13] = fold change over baseline, 1 μM Cbl-b inhibitor, primary human total T-cells, read-out: IL-2 secretion Anti-CD3 stimulation
[14] = fold change over baseline, primary human total T-cells, read-out: IL-2 secretion Anti-CD3 stimulation
[15] = fold change over baseline, 0.3 μM Cbl-b inhibitor, primary human total T-cells, read-out: CD25 staining Anti-CD3/Anti-CD28 stimulation
[16] = fold change over baseline, 1 μM Cbl-b inhibitor, primary human total T-cells, read-out: CD25 staining Anti-CD3/Anti-CD28 stimulation
[17] = fold change over baseline, primary human total T-cells, read-out: CD25 staining Anti-CD3/Anti-CD28 stimulation
[18] = read-out: IL-2 secretion, Anti-CD3/Anti-CD28 stimulation, fold change over baseline
[19] = Homo sapiens, read-out: CD25 staining, Anti-CD3 stimulation, fold change over baseline
[20] = Homo sapiens, read-out: IL-2 secretion, Anti-CD3 stimulation, fold change over baseline
[21] = read-out: CD25 staining, Anti-CD3/Anti-CD28 stimulation, fold change over baseline
[22] = 0.3 μM Cbl-b inhibitor, fold change over baseline (anti-CD3/anti-CD28 stimulated T-cells without inhibitor), read-out: IL-2 secretion Anti-CD3/Anti-CD28 stimulation
[23] = 1 μM Cbl-b inhibitor, fold change over baseline (anti-CD3/anti-CD28 stimulated T-cells without inhibitor), read-out: IL-2 secretion Anti-CD3/Anti-CD28 stimulation
[24] = Homo sapiens, 1 μM Cbl-b inhibitor, fold change over baseline (anti-CD3/anti-CD28 stimulated T-cells without inhibitor), read-out: CD25 staining Anti-CD3 stimulation
[25] = Homo sapiens, 1 μM Cbl-b inhibitor, fold change over baseline (anti-CD3/anti-CD28 stimulated T-cells without inhibitor), read-out: IL-2 secretion Anti-CD3 stimulation
[26] = 0.3 μM Cbl-b inhibitor, fold change over baseline (anti-CD3/anti-CD28 stimulated T-cells without inhibitor), read-out: CD25 staining Anti-CD3/Anti-CD28 stimulation
[27] = 1 μM Cbl-b inhibitor, fold change over baseline (anti-CD3/anti-CD28 stimulated T-cells without inhibitor), read-out: CD25 staining Anti-CD3/Anti-CD28 stimulation

T1 sequence (Q13191 36-427): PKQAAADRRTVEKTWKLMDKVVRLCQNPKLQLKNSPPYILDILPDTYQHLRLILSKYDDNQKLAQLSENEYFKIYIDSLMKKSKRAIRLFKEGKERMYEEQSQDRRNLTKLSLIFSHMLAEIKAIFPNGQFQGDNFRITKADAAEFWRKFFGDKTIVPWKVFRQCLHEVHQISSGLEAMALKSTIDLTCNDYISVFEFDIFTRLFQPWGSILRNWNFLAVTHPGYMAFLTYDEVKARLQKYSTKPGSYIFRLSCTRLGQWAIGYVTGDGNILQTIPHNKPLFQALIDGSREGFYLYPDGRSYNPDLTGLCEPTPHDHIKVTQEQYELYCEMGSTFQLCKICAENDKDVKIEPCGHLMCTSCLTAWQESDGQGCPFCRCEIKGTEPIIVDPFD

Compound	IC50 (Cbl-b [1]; read-out: Cbl-b activity IC50)	IC50 (Cbl-b [2]; [7])	fold induction at 0.3 µM (T-cell [3]; [18])	fold induction at 1 µM (T-cell [3]; [18])	fold induction at 1 µM (T-cell [4]; [19])	fold induction at 1 µM (T-cell [5]; [20])	fold induction at 0.3 µM (T-cell [6]; [21])	fold induction at 1 µM (T-cell [6]; [21])	fold induction at 0.3 µM (T-cell [3]; [22])	fold induction at 1 µM (T-cell [3]; [23])	fold induction at 1 µM (T-cell [4]; [24])	fold induction at 1 µM (T-cell [5]; [25])	fold induction at 0.3 µM (T-cell [6]; [26])	fold induction at 1 µM (T-cell [6]; [27])	also measured
C[C@H](Cc1nncn1C)c1cc(OC2COC2)nc(N2Cc3c(cccc3C(F)(F)F)C2=O)c1 [Compound 354, 2-{4-[(2R)-1-(4-methyl-4H-1,2,4-triazol-3-yl)propan-2-yl]-6-(oxetan-3-yloxy)pyridin-2-yl}-4-(trifluoromethyl)-2,3-dihydro-1H-isoindol-1-one]	0.1 to 0.3 µM	≤ 0.3 µM													fold induction at 0.3 µM (T-cell [3]; [8]): 1.01 to 2.5; fold induction at 1 µM (T-cell [3]; [9]): 1.01 to 2.5; fold induction at 4 µM (T-cell [3]; [10]): 5 to 7.5; fold induction at 1 µM (T-cell [4]; [11]): 0.601 to 0.8; fold induction at 8 µM (T-cell [4]; [12]): > 1; fold induction at 1 µM (T-cell [5]; [13]): 0.101 to 0.15; fold induction at 8 µM (T-cell [5]; [14]): > 0.201; fold induction at 0.3 µM (T-cell [6]; [15]): 1.01 to 1.3; fold induction at 1 µM (T-cell [6]; [16]): 1.01 to 1.3; fold induction at 4 µM (T-cell [6]; [17]): 1.31 to 1.5
C[C@H](Cc1nncn1C)c1cc(OCC(F)F)nc(N2Cc3c(cccc3C(F)(F)F)C2=O)c1 [Compound 356, (R)-2-(6-(2,2-difluoroethoxy)-4-(1-(4-methyl-4H-1,2,4-triazol-3-yl)propan-2-yl)pyridin-2-yl)-4-(trifluoromethyl)isoindolin-1-one]	< 0.1 µM	≤ 0.1 µM													fold induction at 0.3 µM (T-cell [3]; [8]): 2.51 to 5; fold induction at 1 µM (T-cell [3]; [9]): 2.51 to 5; fold induction at 4 µM (T-cell [3]; [10]): > 7.5; fold induction at 1 µM (T-cell [4]; [11]): 0.801 to 1; fold induction at 8 µM (T-cell [4]; [12]): > 1; fold induction at 1 µM (T-cell [5]; [13]): 0.151 to 0.2; fold induction at 8 µM (T-cell [5]; [14]): > 0.201; fold induction at 0.3 µM (T-cell [6]; [15]): 1.01 to 1.3; fold induction at 1 µM (T-cell [6]; [16]): 1.01 to 1.3; fold induction at 4 µM (T-cell [6]; [17]): 1.31 to 1.5
CN1C2CCC1CN(c1cc3c(c(C(F)(F)F)c1)CN(c1cccc(C4(Cc5nncn5C)COC4)c1)C3=O)C2 [Compound 388, 2-(3-(3-((4-Methyl-4H-1,2,4-triazol-3-yl)methyl)oxetan-3-yl)phenyl)-6-(8-methyl-3,8-diazabicyclo[3.2.1]octan-3-yl)-4-(trifluoromethyl)isoindolin-1-one]	< 0.1 µM	≤ 0.1 µM	2.51 to 5	5 to 7.5	> 1	0.151 to 0.2	1.01 to 1.3	1.01 to 1.3							
Cn1cnnc1CC1(c2cccc(NC(=O)c3nc(C(F)(F)F)cs3)c2)COC1 [Compound 495, N-(3-{3-[(4-methyl-1,2,4-triazol-3-yl)methyl]oxetan-3-yl}phenyl)-4-(trifluoromethyl)-1,3-thiazole-2-carboxamide]			1.01 to 2.5	2.51 to 5	0.601 to 0.8	< 0.05	1.01 to 1.3	1.01 to 1.3							IC50 (Cbl-b [1]; Cbl-b activity IC50 (μM)): 0.301 to 1 µM; IC50 (Cbl-b [2]; IC50 values in the Cbl-b inhibition assay of Biological Example 1): ≤ 1 µM
Cn1cnnc1CC1(c2cccc(N3Cc4c(cc(CN5C6CCC5CC6)cc4C(F)(F)F)C3=O)c2)COC1 [Example 555, 6-((7-azabicyclo[2.2.1]heptan-7-yl)methyl)-2-(3-(3-((4-methyl-4H-1,2,4-triazol-3-yl)methyl)oxetan-3-yl)phenyl)-4-(trifluoromethyl)isoindolin-1-one]	< 0.1 µM	≤ 0.1 µM	> 7.5	> 7.5	> 1	> 0.201	1.51 to 1.75	1.51 to 1.75							
Cn1cnnc1CC1(c2cccc(N3Cc4c(cc(CN5C6CCCC5CC6)cc4C(F)(F)F)C3=O)c2)COC1 [Example 556, 6-((8-azabicyclo[3.2.1]octan-8-yl)methyl)-2-(3-(3-((4-methyl-4H-1,2,4-triazol-3-yl)methyl)oxetan-3-yl)phenyl)-4-(trifluoromethyl)isoindolin-1-one]	< 0.1 µM	≤ 0.1 µM	> 7.5	> 7.5	> 1	> 0.201	> 1.76	> 1.76							
Cn1cnnc1CC1(c2cccc(N3Cc4c(cc(CN5[C@@H]6CC[C@H]5C[C@@H](F)C6)cc4C(F)(F)F)C3=O)c2)COC1 [Example 557, 6-(((1R,3r,5S)-3-fluoro-8-azabicyclo[3.2.1]octan-8-yl)methyl)-2-(3-(3-((4-methyl-4H-1,2,4-triazol-3-yl)methyl)oxetan-3-yl)phenyl)-4-(trifluoromethyl)isoindolin-1-one]	< 0.1 µM	≤ 0.1 µM	5 to 7.5	> 7.5	> 1	> 0.201	> 1.76	> 1.76							
Cn1cnnc1CC1(c2cccc(N3Cc4c(cc(C5=CN6CCC5CC6)cc4C(F)(F)F)C3=O)c2)COC1 [Example 559, 6-(l-azabicyclo[2.2.2]oct-2-en-3-yl)-2-(3-(3-((4-methyl-4H-1,2,4-triazol-3-yl)methyl)oxetan-3-yl)phenyl)-4-(trifluoromethyl)isoindolin-1-one]	0.1 to 0.3 µM	≤ 0.3 µM							1.01 to 2.5	2.51 to 5	0.601 to 0.8	< 0.05	1.01 to 1.3	1.01 to 1.3	
Cn1cnnc1CC1(c2cccc(N3Cc4c(cc(C5CN6CCC5CC6)cc4C(F)(F)F)C3=O)c2)COC1 (stereo not drawn) [Example 560, 2-(3-(3-((4-methyl-4H-1,2,4-triazol-3-yl)methyl)oxetan-3-yl)phenyl)-6-(quinuclidin-3-yl)-4-(trifluoromethyl)isoindolin-1-one]	< 0.1 µM	≤ 0.1 µM							2.51 to 5	5 to 7.5	0.601 to 0.8	< 0.05	1.01 to 1.3	1.01 to 1.3	
Cn1cnnc1CC1(c2cccc(N3Cc4c(cc(N5CCOC5=O)cc4C(F)(F)F)C3=O)c2)COC1 [Example 561, 3-(2-(3-(3-((4-Methyl-4H-1,2,4-triazol-3-yl)methyl)oxetan-3-yl)phenyl)-3-oxo-7-(trifluoromethyl)isoindolin-5-yl)oxazolidin-2-one]	< 0.1 µM	≤ 0.1 µM							1.01 to 2.5	2.51 to 5	0.601 to 0.8	< 0.05	1.01 to 1.3	1.01 to 1.3	
CN1C[C@H]2C[C@@H]1CN2c1cc2c(c(C(F)(F)F)c1)CN(c1cccc([C@@](C)(F)C(F)(F)c3nncn3C)c1)C2=O [Example 562, 6-((1R,4R)-5-Methyl-2,5-diazabicyclo[2.2.1]heptan-2-yl)-2-(3-((R)-1,1,2-trifluoro-1-(4-methyl-4H-1,2,4-triazol-3-yl)propan-2-yl)phenyl)-4-(trifluoromethyl)-isoindolin-1-one]	< 0.1 µM	≤ 0.1 µM							5 to 7.5	> 7.5	> 1	> 0.201	1.51 to 1.75	1.51 to 1.75	
